According to the C3SDB collision cross section collection:
Where “and” joins values, the source holds several entries; their conditions need not be identical. Equal values may be shown once.

Conditions: [M+Na]+; instrument: DT; single field, calibrated with ESI Low Concentration Tuning Mix (Agilent)

| collision cross section (N2) | SMILES |
| --- | --- |
| 160.9 Å² | O=c1ccn([C@@H]2O[C@H](CO)[C@@H](O)[C@H]2O)c(=O)[nH]1 [URIDINE] |
| 203 Å² | CC(=O)OCC(=O)[C@@]1(O)CC[C@H]2[C@@H]3CCC4=CC(=O)CC[C@]4(C)[C@H]3[C@@H](O)C[C@@]21C [CORTISOL 21-ACETATE] |
| 137.6 Å² | OCC1(O)OC[C@@H](O)[C@@H](O)[C@H]1O (some centres not stated) [PSICOSE] |
| 174.9 Å² | Nc1nc(=O)c2ncn([C@@H]3O[C@H](CO)[C@@H](O)[C@H]3O)c2[nH]1 [GUANOSINE] |
| 147.7 Å² | O=C(O)c1cc(=O)c2cccc(O)c2[nH]1 [XANTHURENATE] |
| 205.7 Å² | Nc1nc(=O)c2nc(CNc3ccc(C(=O)N[C@@H](CCC(=O)O)C(=O)O)cc3)cnc2[nH]1 [FOLATE] |
| 148.6 Å² | OC1C(O)C(O)C(O)C(O)C1O (configuration not stated) [MYOINOSITOL] |
| 193.1 Å² | Nc1ncnc2c1ncn2[C@@H]1O[C@H](COP(=O)(O)OP(=O)(O)O)[C@@H](O)[C@H]1O [ADENOSINE 5'-DIPHOSPHATE] |
| 141.5 Å² | OC[C@H]1OC(O)[C@@H](O)[C@@H](O)[C@@H]1O (some centres not stated) [MANNOSE] |
| 168.7 Å² | CC(=O)N[C@H]1[C@H]([C@H](O)[C@H](O)CO)OC(O)(C(=O)O)C[C@@H]1O (some centres not stated) [N-ACETYLNEURAMINATE] |
| 192.4 Å² | Nc1ccn([C@@H]2O[C@H](COP(=O)(O)OP(=O)(O)OP(=O)(O)O)[C@@H](O)[C@H]2O)c(=O)n1 [CYTIDINE TRIPHOSPHATE] |
| 143.2 Å² and 146.2 Å² | OC[C@H]1OC(O)[C@H](O)[C@H](O)[C@@H]1O (some centres not stated) [ALLOSE] |
| 143.8 Å² | O=c1[nH]c(=O)c2nccnc2[nH]1 [2,4-DIHYDROXYPTERIDINE] |

Continued, molecule first:

| SMILES | collision cross section (N2) |
| --- | --- |
| O=C(O)CC(C(=O)O)C(O)C(=O)O (configuration not stated) [ISOCITRATE] | 142.7 Å² |
| C[C@H](CCC(=O)NCC(=O)O)[C@H]1CC[C@H]2[C@@H]3[C@H](O)C[C@@H]4C[C@H](O)CC[C@]4(C)[C@H]3CC[C@]12C [GLYCOCHENODEOXYCHOLATE] | 203.6 Å² |
| Nc1nc(=O)c2nccnc2[nH]1 [PTERIN] | 143.4 Å² |
| CCCCCCCCCCCCCCC[C@@H](O)[C@@H](N)CO [SPHINGANINE] | 191.1 Å² |
| C=CC1=C(C)C(/C=c2\[nH]/c(=C\c3[nH]c(/C=C4\NC(=O)C(C)=C4C=C)c(C)c3CCC(=O)O)c(CCC(=O)O)c2C)=NC1=O [BILIVERDIN] | 246.5 Å² |
| OC[C@@H](O)[C@@H](O)CO [ERYTHRITOL] | 129.9 Å² |
| COc1cc(C(O)CN)ccc1O (configuration not stated) [NORMETANEPHRINE] | 155 Å² |
| Cn1cnc(C[C@H](N)C(=O)O)c1 [1-METHYL-L-HISTIDINE] | 138.4 Å² |
| CCCCC/C=C\C/C=C\CCCCCCCC(=O)O [LINOLEATE] | 177 Å² |

Same assay, conditions: [M-H]-; instrument: DT; single field, calibrated with ESI Low Concentration Tuning Mix (Agilent)

| collision cross section (N2) | SMILES |
| --- | --- |
| 191.4 Å² | C[C@]12CCC(=O)C=C1CC[C@@H]1[C@@H]2C(=O)C[C@@]2(C)[C@H]1CC[C@]2(O)C(=O)CO [CORTISONE] |
| 155.3 Å² | Nc1ncnc2c1ncn2[C@H]1C[C@H](O)[C@@H](CO)O1 [DEOXYADENOSINE] |
| 157.6 Å² | Nc1ncnc2c1ncn2[C@@H]1O[C@H](CO)[C@@H](O)[C@H]1O [ADENOSINE] |
| 193 Å² | Nc1nc(=O)c2ncn([C@@H]3O[C@H](COP(=O)(O)OP(=O)(O)OP(=O)(O)O)[C@@H](O)[C@H]3O)c2[nH]1 [GUANOSINE TRIPHOSPHATE] |
| 167.8 Å² | Nc1nc(=O)c2ncn([C@@H]3O[C@@H]4COP(=O)(O)O[C@H]4[C@H]3O)c2[nH]1 [CYCLIC GMP] |
| 140.6 Å² | N[C@@H](Cc1ccc(O)c(O)c1)C(=O)O [L-DOPA] |
| 130.1 Å² | O=C(O)Cc1ccccc1O [2-HYDROXYPHENYLACETATE] |
| 182.4 Å² | Nc1nc(=O)c2ncn([C@@H]3O[C@H](COP(=O)(O)OP(=O)(O)O)[C@@H](O)[C@H]3O)c2[nH]1 [GUANOSINE DIPHOSPHATE] |
| 150.7 Å² | O=c1ccn([C@@H]2O[C@H](CO)[C@@H](O)[C@H]2O)c(=O)[nH]1 [URIDINE] |
| 196.3 Å² | CC(=O)OCC(=O)[C@@]1(O)CC[C@H]2[C@@H]3CCC4=CC(=O)CC[C@]4(C)[C@H]3[C@@H](O)C[C@@]21C [CORTISOL 21-ACETATE] |
| 162.1 Å² | Nc1nc(=O)c2ncn([C@@H]3O[C@H](CO)[C@@H](O)[C@H]3O)c2[nH]1 [GUANOSINE] |
| 134.3 Å² | O=C(O)c1cc(=O)c2cccc(O)c2[nH]1 [XANTHURENATE] |
| 119.8 Å² | O=C(O)c1ccccc1[O-] [SALICYLATE] |
| 149.4 Å² | N[C@@H]1[C@@H](O)[C@H](O)[C@@H](COS(=O)(=O)O)O[C@H]1O [GLUCOSAMINE 6-SULFATE] |
| 192 Å² | Nc1nc(=O)c2nc(CNc3ccc(C(=O)N[C@@H](CCC(=O)O)C(=O)O)cc3)cnc2[nH]1 [FOLATE] |
| 131.3 Å² | OC1C(O)C(O)C(O)C(O)C1O (configuration not stated) [MYOINOSITOL] |
| 183.7 Å² | Nc1ncnc2c1ncn2[C@@H]1O[C@H](COP(=O)(O)OP(=O)(O)O)[C@@H](O)[C@H]1O [ADENOSINE 5'-DIPHOSPHATE] |
| 158.5 Å² and 163.8 Å² | CC(=O)N[C@H]1[C@H]([C@H](O)[C@H](O)CO)OC(O)(C(=O)O)C[C@@H]1O (some centres not stated) [N-ACETYLNEURAMINATE] |
| 120.6 Å² | O=c1[nH]c(=O)c2[nH]cnc2[nH]1 [XANTHINE] |
| 181.2 Å² | Nc1ccn([C@@H]2O[C@H](COP(=O)(O)OP(=O)(O)OP(=O)(O)O)[C@@H](O)[C@H]2O)c(=O)n1 [CYTIDINE TRIPHOSPHATE] |
| 125.3 Å² | O=c1[nH]c(=O)c2nccnc2[nH]1 [2,4-DIHYDROXYPTERIDINE] |

Second part, the molecule before the results:

| SMILES | collision cross section (N2) |
| --- | --- |
| N[C@@H](CCC(=O)O)C(=O)O [GLUTAMATE] | 123.8 Å² |
| O=C(O)[C@H](O)[C@@H](O)[C@H](O)[C@H](O)COP(=O)(O)O [6-PHOSPHOGLUCONATE] | 143.6 Å² |
| O=Cc1ccc(O)cc1 [4-HYDROXYBENZALDEHYDE] | 118.2 Å² |
| CC(=O)Oc1cccc(O)c1 [RESORCINOL MONOACETATE] | 126.1 Å² |
| CC(C)C[C@H](N)C(=O)O [LEUCINE] | 130.6 Å² |
| OC[C@@H](O)[C@H](O)[C@H](O)[C@@H](O)CO [GALACTITOL] | 130.5 Å² |
| CC(=O)N[C@@H](CCC(=O)O)C(=O)O [N-ACETYLGLUTAMATE] | 136.9 Å² |
| NC(CSCC(=O)O)C(=O)O (configuration not stated) [S-CARBOXYMETHYLCYSTEINE] | 130 Å² |
| NCCc1ccc(O)c(O)c1 [DOPAMINE] | 131.8 Å² |
| NC1(C(=O)[O-])CC1 [1-AMINOCYCLOPROPANECARBOXYLATE] | 135.1 Å² |
| O=C(O)CC(C(=O)O)C(O)C(=O)O (configuration not stated) [ISOCITRATE] | 127 Å² |
| C[C@H](CCC(=O)NCC(=O)O)[C@H]1CC[C@H]2[C@@H]3[C@H](O)C[C@@H]4C[C@H](O)CC[C@]4(C)[C@H]3CC[C@]12C [GLYCOCHENODEOXYCHOLATE] | 200.7 Å² |
| Nc1nc(=O)c2nccnc2[nH]1 [PTERIN] | 128.1 Å² |
| C=CC1=C(C)C(/C=c2\[nH]/c(=C\c3[nH]c(/C=C4\NC(=O)C(C)=C4C=C)c(C)c3CCC(=O)O)c(CCC(=O)O)c2C)=NC1=O [BILIVERDIN] | 246 Å² |
| CCCCCC/C=C\CCCCCCCC(=O)O [PALMITOLEATE] | 167.3 Å² |
| CCCCCCCCCCCCCCCCCCCC(=O)O [ARACHIDATE] | 185.1 Å² |

Conditions: [M+H]+; instrument: TW; calibrated with polyalanine and drug standards

| collision cross section (N2) | SMILES |
| --- | --- |
| 184.4 Å² | C[C@]12CCC(=O)C=C1CC[C@@H]1[C@@H]2C(=O)C[C@@]2(C)[C@H]1CC[C@]2(O)C(=O)CO [CORTISONE] |
| 154.6 Å² | Nc1ncnc2c1ncn2[C@H]1C[C@H](O)[C@@H](CO)O1 [DEOXYADENOSINE] |
| 156.9 Å² | Nc1ncnc2c1ncn2[C@@H]1O[C@H](CO)[C@@H](O)[C@H]1O [ADENOSINE] |
